Test results: patent publication US10780090B2, “Heteroaryl compounds useful as inhibitors of SUMO activating enzyme” (Millennium Pharmaceuticals, Inc., priority 2014, dated 2020)

Target: recombinant human SAE enzyme (Homo sapiens (Human), UniProt Q9UBT2)
Assay: SAE HTRF enzyme assay
Assay type: biochemical
Conditions: for inhibition at 0.111 µM: read-out: Percent Inhibition
In short: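 This HTRF format monitors Sumo-Flag–Ubc9-GST thioester formation catalysed by 0.11 nM human SAE with 0.5 μM ATP over 105 min at 24° C. Inhibition is expressed at a single concentration or as IC50.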

Chain of recombinant human SAE enzyme (Q9UBT2 whole entry): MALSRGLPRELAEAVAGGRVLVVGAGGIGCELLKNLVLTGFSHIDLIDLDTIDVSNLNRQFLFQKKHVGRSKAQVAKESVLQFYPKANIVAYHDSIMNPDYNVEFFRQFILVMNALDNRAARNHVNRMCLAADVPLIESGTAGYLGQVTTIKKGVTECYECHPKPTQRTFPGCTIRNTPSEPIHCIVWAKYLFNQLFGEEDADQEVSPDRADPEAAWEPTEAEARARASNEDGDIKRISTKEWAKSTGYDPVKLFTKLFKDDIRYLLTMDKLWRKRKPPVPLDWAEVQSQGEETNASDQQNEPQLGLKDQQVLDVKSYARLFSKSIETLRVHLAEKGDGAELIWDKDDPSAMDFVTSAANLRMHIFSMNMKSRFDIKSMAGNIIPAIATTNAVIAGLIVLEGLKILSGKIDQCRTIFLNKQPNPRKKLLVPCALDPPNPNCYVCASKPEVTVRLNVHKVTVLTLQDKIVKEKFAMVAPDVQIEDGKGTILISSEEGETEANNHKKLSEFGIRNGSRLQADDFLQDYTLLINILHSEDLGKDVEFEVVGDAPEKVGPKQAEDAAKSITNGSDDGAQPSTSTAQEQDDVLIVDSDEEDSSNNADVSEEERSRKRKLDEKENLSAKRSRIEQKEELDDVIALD
Chain of recombinant human SAE enzyme (Q9UBE0 whole entry partner): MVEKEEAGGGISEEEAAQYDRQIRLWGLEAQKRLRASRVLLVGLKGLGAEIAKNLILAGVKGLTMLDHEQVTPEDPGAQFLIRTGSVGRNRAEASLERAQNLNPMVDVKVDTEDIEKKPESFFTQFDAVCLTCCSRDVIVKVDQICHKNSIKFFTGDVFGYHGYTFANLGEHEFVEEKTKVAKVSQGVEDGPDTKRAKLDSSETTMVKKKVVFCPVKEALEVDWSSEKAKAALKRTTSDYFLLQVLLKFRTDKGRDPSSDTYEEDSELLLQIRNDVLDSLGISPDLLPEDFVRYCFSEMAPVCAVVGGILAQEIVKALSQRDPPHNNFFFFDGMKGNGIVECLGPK

SMILES	Percent Inhibition (SAE inhibition at compound concentration 0.111 μM)	IC50 (SAE inhibition, class symbols, legend in nM)	inhibition at 0.111 µM (Concentration 0.111 μM)	IC50 (class symbols A/B/C)	Percent Inhibition (Concentration 0.111 μM)
NS(=O)(=O)OC[C@H]1C[C@@H](Nc2ncncc2C(=O)c2cc([C@@H]3OCCc4ccc(F)cc43)c(Cl)s2)C[C@@H]1O (single isomer, unassigned) [I-294a, [(1R,2S,4R)-4-{[5-({5-chloro-4-[(1R)-7-fluoro-3,4-dihydro-1H-isochromen-1-yl]-2-thienyl}carbonyl)pyrimidin-4-yl]amino}-2-hydroxycyclopentyl]methyl sulfamate or [(1R,2S,4R)-4-{[5-({5-chloro-4-[(1S)-7-fluoro-3,4-dihydro-1H-isochromen-1-yl]-2-thienyl}carbonyl)pyrimidin-4-yl]amino}-2-hydroxycyclopentyl]methyl sulfamate]	84%	10 to 100 nM	–	–	–
CC(=O)c1csc(C(=O)c2cncnc2N[C@@H]2C[C@H](COS(N)(=O)=O)[C@@H](O)C2)c1 [I-229, [(1R,2S,4R)-4-{(5-[(4-Acetyl-2-thienyl)carbonyl]pyrimidin-4-yl}amino)-2-hydroxycyclopentyl]methyl sulfamate]	–	–	25%	100 to 1000 nM	–
NS(=O)(=O)OC[C@H]1C[C@@H](Nc2ncncc2C(=O)c2cc([C@@H]3OCCc4ccc(F)cc43)cs2)C[C@@H]1O (single isomer, unassigned) [I-267, [(1R,2S,4R)-4-{[5-({4-[(1R)-7-Fluoro-3,4-dihydro-1H-isochromen-1-yl]-2-thienyl}carbonyl)pyrimidin-4-yl]amino}-2-hydroxycyclopentyl]methyl sulfamate or [(1R,2S,4R)-4-{[5-({4-[(1S)-7-Fluoro-3,4-dihydro-1H-isochromen-1-yl]-2-thienyl}carbonyl)pyrimidin-4-yl]amino}-2-hydroxycyclopentyl]methyl sulfamate]	–	–	–	< 10 nM	97
Cc1sc(C(=O)c2cncnc2N[C@@H]2C[C@H](COS(N)(=O)=O)[C@@H](O)C2)cc1[C@@H]1OCCc2ccsc21 (single isomer, unassigned) [I-269a, [(1R,2S,4R)-4-{[5-({4-[(7S)-4,7-dihydro-5H-thieno[2,3-c]pyran-7-yl]-5-methyl-2-thienyl}carbonyl)pyrimidin-4-yl]amino}-2-hydroxycyclopentyl]methyl sulfamate or [(1R,2S,4R)-4-{[5-({4-[(7R)-4,7-dihydro-5H-thieno[2,3-c]pyran-7-yl]-5-methyl-2-thienyl}carbonyl)pyrimidin-4-yl]amino}-2-hydroxycyclopentyl]methyl sulfamate]	–	–	–	< 10 nM	101
Cc1cccc(Cc2cc(C(=O)c3cncnc3N[C@@H]3C[C@H](COS(N)(=O)=O)[C@@H](O)C3)sc2C)c1 [I-45, {(1R,2S,4R)-2-hydroxy-4-[(5-{[5-methyl-4-(3-methylbenzyl)-2-thienyl]carbonyl}pyrimidin-4-yl)amino]cyclopentyl}methyl sulfamate]	–	–	99%	< 10 nM	–
Cc1cccc(Cc2cc(C(=O)c3cncnc3N[C@@H]3C[C@H](COS(N)(=O)=O)[C@@H](O)[C@@H]3F)oc2C)c1 [I-65, [(1R,2R,3R,4R)-3-fluoro-2-hydroxy-4-({5-[5-methyl-4-(3-methylbenzyl)-2-furoyl]pyrimidin-4-yl}amino)cyclopentyl]methyl sulfamate]	–	–	99%	< 10 nM	–
Cc1cnn(Cc2csc(C(=O)c3cncnc3N[C@@H]3C[C@H](COS(N)(=O)=O)[C@@H](O)C3)c2)c1 [I-74, [(1R,2S,4R)-2-hydroxy-4-{[5-({4-[(4-methyl-1H-pyrazol-1-yl)methyl]-2-thienyl}carbonyl)pyrimidin-4-yl]amino}cyclopentyl]methyl sulfamate]	–	–	98%	< 10 nM	–
